Experiment [1] concerns rat model of ferric chloride-induced thrombosis. Kind of experiment: Test Example 3: antithrombotic effect confirmation test in a rat model of ferric chloride-induced thrombosis. The settings on record: SD rats, 0.3 mg/kg or 1 mg/kg orally 2 hours before operation, compared to the vehicle group (FIG. 1). The format is in vivo. The text has this: The antithrombotic effect of each of compounds (4), (13), (68), and (79) prepared in Examples 4, 13, 68, and 79 (hereinafter referred to as a test compound) was confirmed using a rat model of ferric chloride-induced thrombosis.
Male 9-week-old SD rats (Japan SLC) were used, and divided into a vehicle group and a test compound group (each having n=10). Two hours before the operation for performing a test, in the test compound group, a 0.5% aqueous sodium carboxymethylcellulose (CMC) solution obtained by suspending a test compound in a mortar was added so that the test compound was orally administered in an amount of 0.3 mg/kg or 1 mg/kg. In the vehicle group, a 0.5% CMC aqueous solution that contained no test compound was orally administered. Two hours after oral administration, the rats in each group were anesthetized using […]., and the following operations were performed on a heat pad that had been kept at 38° C.
An incision was made on the cervical skin, and the left carotid artery was exposed in such a manner that the cervical skeletal muscle was not injured. The adhesion tissue was carefully peeled off. Silk thread was placed over the carotid artery, and filter paper was put on the backside of the carotid artery to prevent effusion and facilitate experiment operations. A semicircular tube 5 mm in length (SP 110, inside diameter: 1.5 mm, produced by Natsume Seisakusho Co., Ltd.) was placed on the filter paper, and the blood vessel was placed in the tube. The carotid artery blood flow was measured using a cuff-type Doppler blood flow meter (inside diameter: 1 mm) placed at the periphery side, and recorded on a recorder (Graphtec WR3320) via an amplifier (Nihon Kohden, RMP-6004M). After the carotid artery blood flow was confirmed, filter paper (Whatman, No. 1, 2.5 mm×4.2 mm), to which 2 μL of physiological saline comprising 35% (w/w) ferric chloride was added dropwise, was wrapped around the origin of the carotid artery (the filter paper was positioned so that the length in the blood vessel circumferential direction was 4.2 mm). […]

In experiment [2] the target is T1, PAI-1 (Homo sapiens, UniProt P05121). Kind of experiment: Reference Test Example (2): evaluation of fibrinolytic action (fibrin plate, PAI-1 + t-PA). The settings on record: mixture of PAI-1, t-PA and test compound on fibrin plate, 18 hours, lysis area. Further details: purchased Molecular Innovations, Inc. (USA). The format is biochemical. As to the method:
The fibrinolytic action of Compounds a and b were evaluated in accordance with the document (Matsuo, O. et al., Haemostasis, 16, 43-50 (1986)).
Specifically, an aqueous solution (containing 25 mM barbital-sodium, 50 mM NaCl, and 25 mM CaCl2) containing a concentration of 1.5 mg/mL of fibrinogen (produced by Organon Teknica) was added, on a 9 cm-plate, to thrombin dissolved in 0.2 mL of physiological saline (10NIH U/mL: produced by Mochida Pharmaceutical Co., Ltd.), and the mixture was allowed to stand at room temperature for 2 hours. Using this mixture, fibrinolysis assay was conducted.
Namely, a mixture of PAI-1, t-PA, and a test compound was added dropwise to the plate and incubated at room temperature for 18 hours. Then, fibrinolysis due to plasminogen activation was measured from the lysis area on the plate.

Experiment [3] has as its target T1, PAI-1. As to the kind of experiment: Reference Test Example (1): measurement of PAI-1 inhibitory activity (S-2288), comparison with tiplaxtinin. The format is biochemical. Details: purchased Molecular Innovations, Inc. (USA). The settings on record: concentrations of 35 μM and 50 μM (FIG. 2). As to the method: The final mixture contained 100 mM Tris-HCl (pH 8), 30 mM NaCl, 1% DMSO, 0.1% Tween 80, 67 nM PAI-1, 9.8 nM t-PA, 1 mM S-2288, and test compound a or b (20, 35, or 50 μM).
[…] P-nitroaniline removed from the chromogenic substrate (S-2288) by t-PA action was measured using a spectrophotometer at an absorbance of 405 nm at 5-minute intervals for 30 minutes.
Comparative tests were carried out in the same manner using, in place of the above test compounds, a compound (tiplaxtinin) of the formula below that is used as an antithrombotic drug in US clinical trials (concentration: 20, 35, and 50 μM).
FIGS. 2 (A), (B), and (C) show PAI-1 activity (%) when compound a (concentrations: 20, 35, and 50 μM), compound b (concentrations: 20, 35, and 50 μM), and tiplaxtinin (comparative compound) (concentrations: 20, 35, and 50 μM) were added, respectively. The results reveal that compounds a and b had higher PAI-1 activity inhibitory action at concentrations of 35 μM and 50 μM than tiplaxtinin (comparative compound) (PAI-1 inhibitory activity).

The target of experiment [4] is T1, PAI-1. Kind of experiment: biochemical. The settings on record: read-out: PAI-1 activity %.
Procedure: The final mixture contained 50 mM Tris-HCl (pH 8), 150 mM NaCl, 1% DMSO, 0.1% PEG-6000, 0.2 mM CHAPS, 5 nMPAI-1, 2 nM t-PA, 0.2 mM Spectrozyme t-PA synthetic substrate, and the compound (10 μM or 2.5 μM).
For experiment [5], the system named is mouse model with pulmonary fibrosis artificially induced by bleomycin. Kind of experiment: Reference Test Example (3): effects on bleomycin-induced pulmonary fibrosis. Format: in vivo. The settings on record: bleomycin mice, 200 mg/kg p.o. twice/day for 14 days. As to the method:
A C57BL/6 mouse (male, body weight: 19 to 21 g) was intraperitoneally anesthetized with pentobarbital, and an incision was made on the cervical organ. Ten mice were used as controls. Bleomycin (produced by Nippon Kayaku Co., Ltd.) (1.5 U/kg) lysed in physiological saline was endotracheally administered to each of the control mice (n=10) twice a day for 14 days. On the other hand, the test mice were subjected to forcible oral administration of compound b (200 mg/kg), suspended in a 0.5% carboxymethyl cellulose aqueous solution, twice a day for 14 days, in addition to the above endotracheal administration. Then, the lung tissues taken from these control mice and test mice were analyzed, and further assayed for hydroxyproline level. The hydroxyproline level in the lung tissues was measured as the hydrolysate level of the lung tissues, according to the method of Kivirikko et al. (Anal. Biochem. 19, 249-255 (1967)). The level (severity) of pulmonary fibrosis was scored from 0 to 8, based on the method of Ashcort et al. (J. Clin. Pathol. 41, 467-470 (1988)). Further, the control mice and the test mice were assayed for plasma PAI-1 activity (ng/mL).

From US8785473B2, “Plasminogen activator inhibitor-1 inhibitor” (Renascience Co., Ltd., priority 2009, dated 2014) come the findings set out here.

Molecules are shown by their SMILES. Marks after values point to notes of the source that are not given here.

T1 sequence (P05121 24-402): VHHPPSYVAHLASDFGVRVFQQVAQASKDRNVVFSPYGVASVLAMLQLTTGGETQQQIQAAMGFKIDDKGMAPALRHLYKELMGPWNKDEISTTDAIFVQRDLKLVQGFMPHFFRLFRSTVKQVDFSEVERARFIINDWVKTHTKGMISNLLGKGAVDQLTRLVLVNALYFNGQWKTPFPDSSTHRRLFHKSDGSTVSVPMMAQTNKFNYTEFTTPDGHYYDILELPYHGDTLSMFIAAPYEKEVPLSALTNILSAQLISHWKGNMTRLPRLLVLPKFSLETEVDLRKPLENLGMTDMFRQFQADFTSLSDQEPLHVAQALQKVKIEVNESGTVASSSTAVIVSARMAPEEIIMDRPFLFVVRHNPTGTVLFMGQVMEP

Consider `O=C(COc1cccc(-c2ccoc2)c1)Nc1ccc(Cl)cc1C(=O)O` [Example 13, 5-chloro-2-({[3-(furan-3-yl)phenoxy]acetyl}amino)benzoic acid], for which the “initial occlusion time (antithrombotic effect)” value (from here on “initial occlusion time”) in experiment [1] is “significantly prolonged”.

As for `CCC(CC(=O)Nc1scc(-c2ccccc2)c1C(=O)O)C(=O)Nc1scc(-c2ccccc2)c1C(=O)O` (stereo not shown) [compound a, 2-[3-(3′-Carboxy-4′-phenylthiophen-2′-ylcarbamoyl)-pentanoylamino]-4-phenylthiophen-3-carboxylic acid], the fibrinolytic action entry on PAI-1 [2] was “inhibit the suppression of fibrinolysis caused by PAI-1”. Also, the “PAI-1 activity inhibitory action compared with tiplaxtinin” value on PAI-1 [3] is given as “higher”.

As to `CC(C(=O)Nc1ccc(Cl)cc1C(=O)O)(c1ccccc1)c1ccccc1` [Example 39, 5-chloro-2-[(2,2-diphenylpropanoyl)amino]benzoic acid], at PAI-1 [4], the activity at 2.5 µM was 88.6% and the activity at 10 µM was determined as 22.1%.

Take `O=C(Nc1ccc(Cl)cc1C(=O)O)c1cccc(-c2ccccc2)c1` [Example 4, 2-[(biphenyl-3-ylcarbonyl)amino]-5-chlorobenzoic acid]: the “initial occlusion time” value in experiment [1] was “significantly prolonged”.

For `O=C(Nc1ccc(Cl)cc1C(=O)O)c1cccc(C2=CCCCC2)c1` [Example 79, 5-chloro-2-({[3-(cyclohex-1-en-1-yl)phenyl]carbonyl}amino)benzoic acid], the “initial occlusion time” value in experiment [1] was “significantly prolonged”.

Take `CCC(CC(=O)Nc1scc(-c2cccs2)c1C(=O)O)C(=O)Nc1scc(-c2cccs2)c1C(=O)O` (stereo not shown) [compound b, 2-[3-(3′-carboxy-4′-thienylthiophen-2′-ylcarbamoyl)-pentanoylamino]-4-thienylthiophen-3-carboxylic acid]: the fibrinolytic action result on PAI-1 [2] was “inhibit the suppression of fibrinolysis caused by PAI-1”. For the same compound, in experiment [5] (n=10, mean±SE), the “Hydroxyproline level in the lung tissues” value was 204.2 ± 9.5^b μg/lung and the “Plasma PAI-1 activity” value is on record as 1.2 ± 0.1^b ng/mL. The same compound had a fibrosis score in experiment [5] (scored from 0 to 8, bleomycin alone 4.7±0.17) of 2.9±0.42. Besides, the “PAI-1 activity inhibitory action compared with tiplaxtinin” value on PAI-1 [3] is “higher”.

In the case of `O=C(COc1cccc(-c2ccccc2)c1)Nc1ccc(-c2ccccc2)cc1C(=O)O` [Example 45, 4-{[(biphenyl-3-yloxy)acetyl]amino}biphenyl-3-carboxylic acid], on PAI-1 [4], the activity at 2.5 µM was 76.9% and the activity at 10 µM was 0.9%.

As for `O=C(COc1ccc(-c2ccccc2)cc1)Nc1ccc(-c2ccoc2)cc1C(=O)O` [Example 46, 2-{[(biphenyl-4-yloxy)acetyl]amino}-5-(furan-3-yl)benzoic acid], at PAI-1 [4], the activity at 2.5 µM is 69.9% and the activity at 10 µM amounted to 0.4%.
